How the values were obtained:
IMR-90 cells [1] = assay: Collagen Sircol assay in TGF-β-treated lung fibrocytes; format: cell-based, human; conditions: IMR-90, TGF-β (5 ng/ml), 0, 1, 5 and 10 µM; FIG. 7b
Description: (§1) IMR-90 cells, human normal lung fibrocytes, were purchased from American Type Culture Collection (ATCC, U.S.A.), and were incubated under 5% CO2 and at a temperature of 37°C for 24 hours in a modified Eagle's medium (MEM) supplemented with 10% FBS serum, 100 units/ml of penicillin, and 100 µg/ml of streptomycin, 1 mM sodium pyruvate, and 0.1 mM non-essential amino acids. Then, two hours before treatment with TGF-β (5ng/ml), compound I was added to the cell culture at a varying concentration (0, 1, 5 and 10 µM) and then, the IMR-90 cells were incubated for 24 hours. Then, as described in Example 2, western blotting was performed to identify inhibition of differentiation of lung fibrocytes by compound I based on expression levels of α-SMA and fibronectin, which are fibrosis marker molecules. […] Also, in extracellular matrix, the amount of collagen, which is one of important materials regarding fibrosis, was measured according to the specification of the manufacturer by using a collagen Sircol assay kit (Biocolor, England).

IMR-90 cells [2] = assay: Collagen amount in irradiated lung fibrocytes; format: cell-based, human; conditions: IMR-90, 10 µM, 2 h before 4 Gy radiation, 48 h; FIG. 7d
Description: (§2) In order to identify whether compound I inhibits radiation-induced fibrosis, instead of external stimulation by TGF-β radiation that can internally engogenously increase TGF-β was employed to induce fibrosis. IMR-90 cells were incubated as described in (1) above and the IMR-90 cells were inoculated to a 6 cm plate containing a modified Eagle's medium (MEM) supplemented with 10% FBS serum, 100 units/ml of penicillin, and 100 µg/ml of streptomycin, 1 mM sodium pyruvate, and 0.1 mM non-essential amino acids. Then, compound I at a concentration of 10 µM was added thereto and the IMR-90 cells were incubated for 2 hours, and then, 4 Gy radiation was applied thereto. 48 hours later, the IMR-90 cells were collected. Then, fibrosis makers as described in Example 2 were identified from the IMR-90 cells by western blotting.

IMR-90 cells [3] = assay: Western blotting of fibrosis markers in irradiated lung fibrocytes; format: cell-based, human; conditions: IMR-90, 10 µM, 2 h before 4 Gy radiation, 48 h; FIG. 7c
Description: as §2

RAW 264.7 cell = assay: RT-PCR of pro-inflammatory cytokine and iNOS mRNA in macrophages stimulated by LPS; format: cell-based, mouse; conditions: RAW 264.7, compound 2 h before 1 µg/ml LPS, 6 h; FIG. 8
Description: A macrophage is a front-line immune cell that is responsible for an initial immune response to various antigens and causes a strong inflammation reaction. RAW 264.7 cell, a mouse macrophage strain, was purchased from American Type Culture Collection (ATCC, U.S.A.), and incubated under 5% CO2 and at a temperature of 37°C in a Dulbecco's modified Eagle's medium (DMEM) supplemented with 10% FBS serum, 100 units/ml of penicillin, and 100 µg/ml of streptomycin. […] of compound I or II was added to the incubated cells and then, two hours later, the cells were treated with 1 µg/ml lipopolysaccharide (LPS), which is a cell wall component of a gram negative bacteria and incubated further for 6 hours. Then, the cells were collected and the total RNA thereof was isolated using TRIzol and quantified. Out of the total RNA, 1 µg of RNA was used to synthesize cDNA using a reverse transcriptase. Then, a polymerase chain reaction (PCR) was performed using the cDNA as a template to identify expression levels of cytokines. In detail, PCR was performed in the presence of a DNA polymerase using the cDNA as a template to amplify IL-1β, IL-6, and TNF-α which are pro-inflammatory cytokines, iNOS, nitric oxide synthase, and β-actin used as a control group with a cycle consisting of 30 seconds at a temperature of 94°C, 45 seconds at a temperature of 55°C, and 45 seconds at a temperature of 72°C repeated 30 times. Primers set forth in SEQ ID. NOs: 1 through 10 shown in Table 1 were used to amplify IL-1β, IL-6, TNF-α, iNOS and β-actin, respectively. Table 1 [Table 1]
The amplification product of PCR was subjected to electrophoresis on 1% agarose gel in which ethidium bromide (dye) was present so as to measure mRNA expression levels of the cytokines. FIGS. 8a and 8b show changes in the amounts of the pro-inflammatory cytokines caused by compounds I and II, respectively.

H1299 = assay: Apoptosis of lung cancer cells alone or with doxorubicin, CCK-8 viability assay; format: cell-based; conditions: 48 h; for apoptosis effect together with doxorubicin: H1299, compound added 2 h before doxorubicin 0.05 µM; for apoptosis: H1299, compound alone at 5 µM or more, FIGS. 9a, 9c
Description: TGF-βis known to have contrasting effects related to a tumor. That is, at an initial stage, TGF-β suppresses tumor growth, but at a latter stage, promotes metastasis or infiltration of a tumor. Thus, apoptosis of tumor cell lines caused by compound I and II, and apoptosis of tumor cell lines caused by compound I or II in combination with doxorubicin, an anti-cancer agent, were measured. […] The tumor cells were treated with compound I or II at the concentrations shown in FIG. 9, and 2 hours later, doxorubicin was added thereto. Then, the cells were incubated for 48 hours under the conditions described above and then, quantified using a CCK-8 viability assay kit (Dojindo, Japan).

IMR-90 cells [4] = assay: Western blotting of fibrosis markers in TGF-β-treated lung fibrocytes; format: cell-based, human; conditions: IMR-90, 0, 1, 5 and 10 µM added 2 h before TGF-β (5 ng/ml), 24 h; FIG. 7a
Description: as §1

| SMILES | amount of collagen (IMR-90 cells [1]) | amount of collagen (IMR-90 cells [2]) | expressions of α-SMA and fibronectin (IMR-90 cells [3]) | IL-1 mRNA expression (RAW 264.7 cell) | expression of TNF-α (RAW 264.7 cell) | iNOS mRNA expression (RAW 264.7 cell) | apoptosis effect together with doxorubicin (H1299) | apoptosis (H1299) | fibrosis in human lung fibrocytes (expression levels of α-SMA and fibronectin) (IMR-90 cells [4]) | IL-6 mRNA expression (RAW 264.7 cell) |
| --- | --- | --- | --- | --- | --- | --- | --- | --- | --- | --- |
| Cc1cn2c(nc3c2c(=O)n(Cc2ccccc2Cl)c(=O)n3C)[nH]1 [compound I, 3-(2-chlorobenzyl)-1,7-dimethyl-1H-imidazo[2,1-f]purine-2,4(3H,8H)-dion] | concentration-dependently reduced the amount of collagen | reduced to a level similar to that in the no-treatment control group | significantly reduced | significantly inhibited | slightly reduced | significantly inhibited | additive or synergistic apoptosis effects | apoptosis occurred | concentration-dependently decreased fibrosis | – |
| Cc1[nH]c2nc3c(c(=O)n(Cc4c(F)cccc4Cl)c(=O)n3C)n2c1C [compound II, 3-(2-chloro-6-fluorobenzyl)-1,6,7-trimethyl-1H-imidazo[2,1-f]purine-2,4(3H,8H)-dion] | – | – | – | – | slightly reduced | distinctively reduced | additive or synergistic apoptosis effects | apoptosis occurred | – | distinctively reduced |

From patent EP2488183B1, “Composition for inhibiting TGF-beta comprising imidazopurine derivatives” (Korea Institute of Radiological & Medical Sciences, priority 2009, dated 2011)
